Assay results reported in publication PMC6231237 (Journal of the American Chemical Society, 2018).
*1 amine or outer side, *2 acyl side, *3 side chain or, on linkers, in order; H or OH if unused. Where a SMILES comes first, the peptide text is derived from it. Bridges are numbered along the chain shown (N, C = ends). [ ]: non-standard residue; d: D form. Trimesoyl = O=C(c1cc(C(=O)[*:2])cc(C(=O)[*:3])c1)[*:1]; 2Nal = N[C@@H](Cc1ccc2ccccc2c1)C(=O)O; Dap = NC[C@H](N)C(=O)O; βAla = NCCC(=O)O

Tests used:
[1] = system: TNFα-induced NF-κB activation in HEK293(Luc) cells; assay: NF-κB luciferase assay, TNFα-induced; format: cell-based
NEMO-IKKβ interaction = NEMO-IKKβ interaction (Homo sapiens, UniProt Q9Y6K9); assay: HTRF assay of inhibition of the NEMO-IKKβ interaction; format: binding; conditions: insertion of Ala N-terminal to the internal Dap, vs peptide 6
HeLa cells = assay: Flow cytometry analysis of cellular uptake of FITC-labeled peptides; format: cell-based; conditions: relative to CPP1
[2] = system: basal NF-κB activity in HEK293(Luc) cells; assay: NF-κB luciferase assay, basal; format: cell-based; conditions: absence of TNFα stimulation
HT29 colon cancer cells = assay: Immunoblot analysis of IKKβ and IκBα levels; format: cell-based
[3] = system: ovarian surface epithelial cells (OSE); assay: Methylene blue cell viability assay, OSE; format: cell-based; conditions: 72 h
A375 melanoma cells = assay: Cell viability assay, A375; format: cell-based
[4] = system: A2780 ovarian cancer cells; assay: Live-cell confocal microscopy of cell entry; format: cell-based; conditions: 5 μM FITC-labeled peptide, 2 h
[5] = biological target: panel of control proteins; assay: Fluorescence anisotropy; conditions: fluorescently labeled peptide, FA assay
[6] = 0–25 μM, HT29 cells, TNFα, Western blot

NEMO-IKKβ interaction, sequence (Q9Y6K9 1-196): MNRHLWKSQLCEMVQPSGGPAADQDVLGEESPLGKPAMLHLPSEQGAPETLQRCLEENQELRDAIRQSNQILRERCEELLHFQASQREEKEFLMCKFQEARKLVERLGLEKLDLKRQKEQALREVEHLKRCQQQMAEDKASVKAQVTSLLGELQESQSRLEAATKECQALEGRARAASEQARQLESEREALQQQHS

Compound	IC50 [1]	increase of binding affinity (NEMO-IKKβ interaction)	cell permeability (HeLa cells)	effect on basal NF-κB activity [2]	increase in the basal NF-κB activity [2]	TNFα-induced phosphorylation of IKKβ (HT29 colon cancer cells; [6])	total intracellular IKKβ level (HT29 colon cancer cells; [6])	phospho-IKKβ or IκBα level (HT29 colon cancer cells; HT29 cells not stimulated with TNFα)	intracellular level of IκBα (HT29 colon cancer cells; HT29 cells, TNFα, Western blot)	effect on viability [3]	effect on viability (A375 melanoma cells)	cell entry (fluorescence) [4]	Kd [5]
RQIKIWFQNRRMKWKKGGTALDWSWLQTE [peptide 1, reference compound]	~41 µM												
CC[C@H](C)[C@@H]1NC(=O)[C@H](Cc2c[nH]c3ccccc23)NC(=O)CNC(=O)c2cc3cc(c2)C(=O)NC[C@@H](C(=O)NCCC(=O)NCCC(=O)N[C@@H](CCCCN)C(N)=O)NC(=O)[C@H](CCCNC(=N)N)NC(=O)[C@@H](CCCNC(=N)N)NC(=O)[C@H](CCCNC(=N)N)NC(=O)[C@H](Cc2ccc4ccccc4c2)NC(=O)[C@H](Cc2ccccc2)NC(=O)[C@H](CNC3=O)NC(=O)[C@H](C)NC(=O)[C@H](Cc2ccc(O)cc2)NC1=O [peptide 7, Tm(GWIYA)Δ(FΦRrRΔ)-BBK] (GWIYA[Dap]F[2Nal]R[dR]R[Dap][βAla][βAla]K-NH2; linker N-6-12 via Trimesoyl; C-terminus assumed)	10 µM	5.9 fold	163%	did not inhibit	~ 1.5 fold	dose-dependently inhibited	unchanged	no effect	increased	no significant effect	reduced the viability	intense green fluorescence inside all cells	> 10 µM
